Results reported in paper PMC9784969, “SARS-CoV-2 Inhibitors Identified by Phenotypic Analysis of a Collection of Viral RNA-Binding Molecules” (Pharmaceuticals, 2022).
Read-outs that look alike come from different tables or passages of the source.

Columns and labels:
SARS-CoV-2 USA-WA1/2020 [1] = assay: microbe, parasite or virus in culture; format: cell-based; details: Severe acute respiratory syndrome coronavirus 2, 48 h; 293T-ACE2 cells, MOI 0.25, two days; read-out: SARS-CoV-2 EC50
ATTL RNA = assay: ligand-based 1H NMR (1D, CPMG, wLOGSY); format: binding, SARS-CoV-2
5_SL2+3 RNA = assay: ligand-based 1H NMR (1D, CPMG, wLOGSY); format: binding, SARS-CoV-2
SCoV2 USA-WA1/2020 = format: cell-based; details: 293T-ACE2, MOI 2, 8-h single cycle; added at +2 h relative to infection
ORF7b RNA = assay: ligand-based 1H NMR (1D, CPMG, wLOGSY); format: binding, SARS-CoV-2
PRF RNA = assay: ligand-based 1H NMR (1D, CPMG, wLOGSY); format: binding, SARS-CoV-2
3_S2m-23fl RNA hairpin = assay: fluorescence intensity binding assay; design: species or system SARS-CoV-2
Procedure: The 3_S2m-23fl RNA oligonucleotide used in fluorescence intensity experiments was purchased HPLC-purified from Integrated DNA Technologies (Coralville, IA, USA). […] The mixture of tRNAs from E. coli MRE 600 (identified as tRNA^mix) used to evaluate specificity was obtained from Roche (Basel, Switzerland).
3_S2m-23fl (at 100 nM concentration) was snap-cooled in a buffer containing sodium phosphate pH 6.6, 0 or 150 mM NaCl, and 0.1 mM EDTA and incubated with increasing amounts of compound. The specificity of the RNA–ligand interactions was evaluated by repeating the assays in the presence of a 100-fold molar excess (10 μM) of tRNA^mix. The equilibrium dissociation constants Kd were obtained by fitting the dose–response curves to a two-state binding model [41] with Prism software (GraphPad Software, San Diego, CA, USA). All fluorescence binding assays were carried out three times for each molecule and condition.

SARS-CoV-2 = format: cell-based; details: 48 h post-infection
in vitro = details: African green monkey, uninfected Vero E6 cells
SARS-CoV-2 USA-WA1/2020 [2] = assay: microbe, parasite or virus in culture; format: cell-based; details: Severe acute respiratory syndrome coronavirus 2, Vero C1008, 48 h, Vero E6 cells, MOI 0.025, two days; read-out: SARS-CoV-2 EC50
[3] = average of aliphatic protons, RNA:ligand 1:100 (clomiphene) or 1:50 (trim, qz2)
[4] = average of aromatic protons, RNA:ligand 1:100 (clomiphene) or 1:50 (trim, qz2)

NCCCc1cn(C(c2ccccc2)(c2ccccc2)c2ccccc2)cn1 [trim]
EC50 (SARS-CoV-2 USA-WA1/2020 [1]): 0.33 µM
CPMG variation (ATTL RNA; [3]): 11.7%
LB (ATTL RNA; [3]): 10.0%
LOGSY factor (ATTL RNA; [3]): 5.15%
CPMG variation (ATTL RNA; [4]): -12.7%
LB (ATTL RNA; [4]): 9.31%
LOGSY factor (ATTL RNA; [4]): 4.35%
CPMG variation (ATTL RNA; trim peak A, RNA:ligand 1:50): 8.20%
LB (ATTL RNA; trim peak A, RNA:ligand 1:50): 12.4%
LOGSY factor (ATTL RNA; trim peak A, RNA:ligand 1:50): 7.80%
CPMG variation (ATTL RNA; trim peak B, RNA:ligand 1:50): 17.6%
LB (ATTL RNA; trim peak B, RNA:ligand 1:50): 8.81%
LOGSY factor (ATTL RNA; trim peak B, RNA:ligand 1:50): 2.50%
CPMG variation (ATTL RNA; trim peak C, RNA:ligand 1:50): -36.9%
LB (ATTL RNA; trim peak C, RNA:ligand 1:50): 1.54%
LOGSY factor (ATTL RNA; trim peak C, RNA:ligand 1:50): 4.56%
CPMG variation (ATTL RNA; trim peak D, RNA:ligand 1:50): 8.68%
LB (ATTL RNA; trim peak D, RNA:ligand 1:50): 7.54%
LOGSY factor (ATTL RNA; trim peak D, RNA:ligand 1:50): 4.51%
CPMG variation (ATTL RNA; trim peak E, RNA:ligand 1:50): -32.0%
LB (ATTL RNA; trim peak E, RNA:ligand 1:50): 23.3%
LOGSY factor (ATTL RNA; trim peak E, RNA:ligand 1:50): 3.98%
CPMG variation (5_SL2+3 RNA; [3]): 31.0%
LB (5_SL2+3 RNA; [3]): 19.1%
LOGSY factor (5_SL2+3 RNA; [3]): 49.4%
CPMG variation (5_SL2+3 RNA; [4]): 39.0%
LB (5_SL2+3 RNA; [4]): 15.9%
LOGSY factor (5_SL2+3 RNA; [4]): 131.1%
CPMG variation (5_SL2+3 RNA; trim peak A, RNA:ligand 1:50): 32.9%
LB (5_SL2+3 RNA; trim peak A, RNA:ligand 1:50): 15.7%
LOGSY factor (5_SL2+3 RNA; trim peak A, RNA:ligand 1:50): 55.3%
CPMG variation (5_SL2+3 RNA; trim peak B, RNA:ligand 1:50): 36.9%
LB (5_SL2+3 RNA; trim peak B, RNA:ligand 1:50): 20.8%
LOGSY factor (5_SL2+3 RNA; trim peak B, RNA:ligand 1:50): 43.4%
CPMG variation (5_SL2+3 RNA; trim peak C, RNA:ligand 1:50): 40.3%
LB (5_SL2+3 RNA; trim peak C, RNA:ligand 1:50): 14.9%
LOGSY factor (5_SL2+3 RNA; trim peak C, RNA:ligand 1:50): 131%
CPMG variation (5_SL2+3 RNA; trim peak D, RNA:ligand 1:50): 38.6%
LB (5_SL2+3 RNA; trim peak D, RNA:ligand 1:50): 16.0%
LOGSY factor (5_SL2+3 RNA; trim peak D, RNA:ligand 1:50): 126%
CPMG variation (5_SL2+3 RNA; trim peak E, RNA:ligand 1:50): 38.9%
LB (5_SL2+3 RNA; trim peak E, RNA:ligand 1:50): 16.7%
LOGSY factor (5_SL2+3 RNA; trim peak E, RNA:ligand 1:50): 135%
nucleocapsid protein expression (SCoV2 USA-WA1/2020): strongly inhibited
CPMG variation (ORF7b RNA; [3]): 38.7%
LB (ORF7b RNA; [3]): 13.5%
LOGSY factor (ORF7b RNA; [3]): 103%
CPMG variation (ORF7b RNA; [4]): 30.2%
LB (ORF7b RNA; [4]): 4.23%
LOGSY factor (ORF7b RNA; [4]): 208%
CPMG variation (ORF7b RNA; trim peak A, RNA:ligand 1:50): 34.9%
LB (ORF7b RNA; trim peak A, RNA:ligand 1:50): 15.8%
LOGSY factor (ORF7b RNA; trim peak A, RNA:ligand 1:50): 75.4%
CPMG variation (ORF7b RNA; trim peak B, RNA:ligand 1:50): 44.0%
LB (ORF7b RNA; trim peak B, RNA:ligand 1:50): 12.4%
LOGSY factor (ORF7b RNA; trim peak B, RNA:ligand 1:50): 132%
CPMG variation (ORF7b RNA; trim peak C, RNA:ligand 1:50): 18.3%
LB (ORF7b RNA; trim peak C, RNA:ligand 1:50): -3.43%
LOGSY factor (ORF7b RNA; trim peak C, RNA:ligand 1:50): 210%
CPMG variation (ORF7b RNA; trim peak D, RNA:ligand 1:50): 41.8%
LB (ORF7b RNA; trim peak D, RNA:ligand 1:50): 7.94%
LOGSY factor (ORF7b RNA; trim peak D, RNA:ligand 1:50): 218%
CPMG variation (ORF7b RNA; trim peak E, RNA:ligand 1:50): 20.4%
LB (ORF7b RNA; trim peak E, RNA:ligand 1:50): 4.46%
LOGSY factor (ORF7b RNA; trim peak E, RNA:ligand 1:50): 196%
CPMG variation (PRF RNA; [3]): 14.0%
LB (PRF RNA; [3]): 13.9%
LOGSY factor (PRF RNA; [3]): 29.0%
CPMG variation (PRF RNA; [4]): 15.5%
LB (PRF RNA; [4]): -22.5%
LOGSY factor (PRF RNA; [4]): 50.5%
CPMG variation (PRF RNA; trim peak A, RNA:ligand 1:50): 13.0%
LB (PRF RNA; trim peak A, RNA:ligand 1:50): 20.1%
LOGSY factor (PRF RNA; trim peak A, RNA:ligand 1:50): 37.0%
CPMG variation (PRF RNA; trim peak B, RNA:ligand 1:50): 18.9%
LB (PRF RNA; trim peak B, RNA:ligand 1:50): 10.8%
LOGSY factor (PRF RNA; trim peak B, RNA:ligand 1:50): 21.0%
CPMG variation (PRF RNA; trim peak C, RNA:ligand 1:50): 9.72%
LB (PRF RNA; trim peak C, RNA:ligand 1:50): -39.2%
LOGSY factor (PRF RNA; trim peak C, RNA:ligand 1:50): 16.7%
CPMG variation (PRF RNA; trim peak D, RNA:ligand 1:50): 19.7%
LB (PRF RNA; trim peak D, RNA:ligand 1:50): 3.93%
LOGSY factor (PRF RNA; trim peak D, RNA:ligand 1:50): 46.0%
CPMG variation (PRF RNA; trim peak E, RNA:ligand 1:50): 12.5%
LB (PRF RNA; trim peak E, RNA:ligand 1:50): -58.9%
LOGSY factor (PRF RNA; trim peak E, RNA:ligand 1:50): 88.8%
Kd (3_S2m-23fl RNA hairpin; 0 mM NaCl, pH 6.6, 25 °C, read-out: Kd): 19.3 µM
Kd (3_S2m-23fl RNA hairpin; 150 mM NaCl, 100-fold molar excess of tRNA, read-out: Kd-tRNA): 8.97 µM
Kd (3_S2m-23fl RNA hairpin; 150 mM NaCl, pH 6.6, 25 °C, no tRNA, read-out: Kd): 12.5 µM
viral titers in supernatants (TCID50) (SARS-CoV-2): below the limit of detection
CC50 at 2 days (in vitro): > 90 µM
EC50 (SARS-CoV-2 USA-WA1/2020 [2]): 3.5 µM
